20 molecules from patent US20130053381A1, “2,4-DIOXO-1,4-DIHYDRO-2H-QUINAZOLIN-3-YL-SULFONAMIDE DERIVATIVES” (NOVARTIS AG, priority 2010, published 2013) can be followed below.

pIC50: −log10 of the molar value. Like-named read-outs stand apart in the source and are kept apart here.

By pIC50 is commonly meant the negative decadic logarithm of the IC50, by convention in mol/L. One may read the ED50 as the dose at which the effect has come halfway, by size or by number of responders.

One test has as its target AMPA receptor. Kind of test: [3H]CNQX binding test (AMPA-receptor binding). Set-up: species or system rat. As to the method:
CNQX binding test (Honore et al. Biochem. Pharmacol. 1989, 38: 3207-3212). This test is performed as follows.
Brain membranes: The animals are sacrificed, the brain removed and homogenized in 10 volumes of ice-cold 10% sucrose with a glass/Teflon homogenizer at positions 5 for 30 sec. The membranes are centrifuged at 1000×g for 10 min, and the supernatant centrifuged at 20,000×g for 15 min. The resulting pellet is resuspended in 10 volumes of cold water with a tissue homogenizer (Brinkman Polytron) at position 5 for 15 sec and the suspension centrifuged at 8000×g for 10 min. The supernatant including the buffy layer is centrifuged at 40,000×g for 20 min, the pellet resuspended in 5 volumes of water and the suspension frozen (20-30 min in dry ice/MeOH) and thawed (water-bath at 37° C.) twice. The suspension is centrifuged at 40,000×g for 20 min, the pellet resuspended in 50 mM HEPES/KOH, pH 7.5, and centrifuged at 40,000×g for 10 min. The final pellet is resuspended with a glass/Teflon homogenizer in 5 volumes of HEPES/KOH buffer; 2 mL aliquots are frozen and stored in liquid nitrogen.
Pretreatment of membranes: Membranes are thawed at 35° C. and once washed with 50 mM HEPES/KOH by centrifugation at 39,000×g for 10 min. The final pellet is resuspended with a glass/Teflon homogenizer in the same buffer.
Radioligand binding assay: It is performed using 96-well microtiterplates in a volume of 0.3 mL of 50 mM HEPES/KOH, pH 7.2, 100 μg membrane protein, 5 nM [^3H]-CNQX (NEN) and the compound to be tested. Incubation is performed at 4° C. for 40 min and the reaction is terminated by centrifugation (Sigma 4K10) at 3700×g for 30 min. The pellet is washed once with cold buffer and then dissolved in 0.02 mL of the tissue solubilizer Soluene for 20 min. Two hundred μL of the scintillation fluid Microscint 20 (Packard) are added and the radioactivity is counted in a Packard Topcount scintillation counter at an efficiency of 40-45%. Nonspecific binding is defined by 10 μM CNQX. Assays are performed in triplicate.

The subject of another test is OF1 mice. Put plainly: Maximal electroshock test (MES Test). It is filed as in vivo. As to conditions: for responders at 50 mg/kg: p.o. In outline:
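Readout: fraction of five OF1 mice protected, meaning seizure duration 3 s or less, after a 50 Hz, 18 mA, 0.2 s temporal-electrode shock. Dosing was oral, usually 50 mg/kg, one hour beforehand; ED50 values were derived and post-shock blood taken for exposure.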
A general note: Protection in the maximal electroshock model is a classic sign of anticonvulsant action.

[1] abbreviates: Table 2 parent compounds, rat, read-out: [3H]CNQX IC50 AMPA receptor binding, rat.
Where [2] appears, read: Mus musculus, po, pre-treatment time −1 h, read-out: %-Protection.
Setting [3] is: Table 1A parent compounds, AMPA-receptor binding as described for Table 2, read-out: IC50.

Consider `CS(=O)(=O)Nn1c(=O)[nH]c2cc(C(F)(F)F)c(-n3cccc3)cc2c1=O` [Example 8.0, N-(2,4-dioxo-6-pyrrol-1-yl-7-trifluoromethyl-1,4-dihydro-2H-quinazolin-3-yl)-methanesulfonamide], for which the pIC50 on AMPA receptor (setting [1]) was 6.79. Also, in the test with OF1 mice (setting [2]), the responders at 50 mg/kg came out at 40%.
In the case of `CS(=O)(=O)Nn1c(=O)[nH]c2cc(C(F)(F)F)c([C@H]3CCCO3)cc2c1=O` [Example 10.0, N—((R)-2,4-dioxo-6-tetrahydro-furan-2-yl-7-trifluoromethyl-1,4-dihydro-2H-quinazolin-3-yl)-methanesulfonamide], the pIC50 on AMPA receptor (setting [1]) was 6.80. For the same molecule, the responders at 50 mg/kg came to 0% in the test on OF1 mice (Mus musculus, po, pre-treatment time −0.5 h (footnote d), read-out: %-Protection) and 100% with OF1 mice (setting [2]).
As to `Cn1nccc1-c1cc2c(=O)n(NS(C)(=O)=O)c(=O)[nH]c2cc1C(F)(F)F` [Example 1.0, N-[6-(2-methyl-2H-pyrazol-3-yl)-2,4-dioxo-7-trifluoromethyl-1,4-dihydro-2H-quinazolin-3-yl]-methanesulfonamide], the pIC50 on AMPA receptor (setting [1]) was 6.68. Moreover, in the test on OF1 mice (setting [2]), the responders at 50 mg/kg is 20%.
Take `CC(C)c1cc2[nH]c(=O)n(NS(C)(=O)=O)c(=O)c2cc1-c1ccnn1C` [Example 3.0, N-[7-isopropyl-6-(2-methyl-2H-pyrazol-3-yl)-2,4-dioxo-1,4-dihydro-2H-quinazolin-3-yl]-methanesulfonamide]: at AMPA receptor (setting [1]), the negative-log IC50 (pIC50) is 6.72. Besides, the responders at 15 mg/kg in the test on OF1 mice (Mus musculus, po, Dose: 15 mg/kg, p.o. (footnote c), pre-treatment time −1 h, read-out: %-Protection) stood at 100%. Besides, the responders at 50 mg/kg in the test with OF1 mice (Mus musculus, po, Table 5, pre-treatment time −0.25 h, read-out: %-Protection) was 0%; with OF1 mice (Mus musculus, po, Table 5, pre-treatment time −0.5 h, read-out: %-Protection) it was 100%; in the test on OF1 mice (Mus musculus, po, Table 5, pre-treatment time −1 h, read-out: %-Protection), 100%.
Take `CC(C)n1nccc1-c1cc2c(=O)n(NS(C)(=O)=O)c(=O)[nH]c2cc1C(F)F` [Example 6.0, N-[7-difluoromethyl-6-(2-isopropyl-2H-pyrazol-3-yl)-2,4-dioxo-1,4-dihydro-2H-quinazolin-3-yl]-methanesulfonamide]: on AMPA receptor (setting [1]), the negative-log IC50 (pIC50) is 6.96. Also, the responders at 50 mg/kg in the test on OF1 mice (setting [2]) worked out at 80%. Further, in the test on OF1 mice (Mus musculus, po, Dose: 25 mg/kg, p.o. (footnote b), pre-treatment time −1 h, read-out: %-Protection), the responders at 25 mg/kg was 20%.
For `CS(=O)(=O)Nn1c(=O)[nH]c2cc(C(F)(F)F)c(-n3cnnc3)cc2c1=O` [Example 9.0, N-(2,4-dioxo-6-[1,2,4]triazol-4-yl-7-trifluoromethyl-1,4-dihydro-2H-quinazolin-3-yl)-methanesulfonamide], the pIC50 on AMPA receptor (setting [1]) is 7.34. Besides, in the test on OF1 mice (Mus musculus, po, pre-treatment time −2 h (footnote a), read-out: %-Protection), the responders at 50 mg/kg was found to be 20%.
For the molecule `CCC(O)c1cc2c(=O)n(NS(C)(=O)=O)c(=O)[nH]c2cc1C(F)(F)F` (stereo not drawn) [Example 12.0, N-[6-(1-hydroxy-propyl)-2,4-dioxo-7-trifluoromethyl-1,4-dihydro-2H-quinazolin-3-yl]-methanesulfonamide], on AMPA receptor (setting [1]), the pIC50 is 6.79. Moreover, the responders at 50 mg/kg with OF1 mice (setting [2]) is 40%.
Turning to `CCc1cc2[nH]c(=O)n(NS(C)(=O)=O)c(=O)c2cc1-c1ccnn1CC` [Example 13.0, N-[7-ethyl-6-(2-ethyl-2H-pyrazol-3-yl)-2,4-dioxo-1,4-dihydro-2H-quinazolin-3-yl]-methanesulfonamide], the negative-log IC50 (pIC50) on AMPA receptor (setting [1]) was 6.47. Besides, the responders at 50 mg/kg in the test on OF1 mice (setting [2]) came to 60%.
Taken in the same sequence, the figures for `CCc1cc2[nH]c(=O)n(NS(C)(=O)=O)c(=O)c2cc1-c1ccnn1C` [Example 2.0, N-[7-ethyl-6-(2-methyl-2H-pyrazol-3-yl)-2,4-dioxo-1,4-dihydro-2H-quinazolin-3-yl]-methanesulfonamide] were 6.59 and 80%.
Regarding `CCC(OC)c1cc2c(=O)n(NS(C)(=O)=O)c(=O)[nH]c2cc1C(F)(F)F` (stereo not drawn) [Example 11.0, N-[2,4-Dioxo-6-(1-methoxy-propyl)-7-trifluoromethyl-1,4-dihydro-2H-quinazolin-3-yl]-methanesulfonamide], the negative logarithm of the IC50 (pIC50) at AMPA receptor (setting [1]) was 6.50. The responders at 50 mg/kg in the test with OF1 mice (setting [2]) turned out to be 100%.
For the molecule `CC(C)n1nccc1-c1cc2c(=O)n(NS(C)(=O)=O)c(=O)[nH]c2cc1C(F)(F)F` [Example 5.0, N-[6-(2-isopropyl-2H-pyrazol-3-yl)-2,4-dioxo-7-trifluoromethyl-1,4-dihydro-2H-quinazolin-3-yl]-methanesulfonamide], at AMPA receptor (setting [1]), the pIC50 was 7.06. Further, in the test on OF1 mice (setting [2]), the responders at 50 mg/kg amounted to 80%.
For the molecule `CC(C)c1cc2[nH]c(=O)n(NS(C)(=O)=O)c(=O)c2cc1-c1ccnn1C(C)C` [Example 37.0], the pIC50 at AMPA receptor (setting [3]) is 6.37.
Turning to `CCOC(CC)c1cc2c(=O)n(NS(C)(=O)=O)c(=O)[nH]c2cc1C(F)(F)F` (stereo not drawn) [Example 26.0], the negative-log IC50 (pIC50) at AMPA receptor (setting [3]) is 6.29.
The same measure, in the same setting: the figure for `CCOC(C)c1cc2c(=O)n(NS(C)(=O)=O)c(=O)[nH]c2cc1C(F)F` (stereo not drawn) [Example 21.0] is 6.05; for `CC(C)c1cc2[nH]c(=O)n(NS(C)(=O)=O)c(=O)c2cc1-c1ccnn1-c1ccccc1` [Example 49.0] it is 5.46.
`CS(=O)(=O)Nn1c(=O)[nH]c2cc(C(F)(F)F)c([C@H]3CO[C@@H](CO)C3)cc2c1=O` [Example 47.0]: the negative-log IC50 (pIC50) on AMPA receptor (setting [3]) is 6.43.
As for `CS(=O)(=O)Nn1c(=O)[nH]c2cc(C(F)(F)F)c(-n3ccnc3)cc2c1=O` [Example 4.0, N-(6-imidazol-1-yl-2,4-dioxo-7-trifluoromethyl-1,4-dihydro-2H-quinazolin-3-yl)-methanesulfonamide], the pIC50 on AMPA receptor (setting [1]) was 7.38. Also, the median effective dose (ED50) with OF1 mice (Mus musculus, ip, pre-treatment time −0.25 h (footnote g)) came out at 10.7 mg/kg. In addition, the responders at 50 mg/kg with OF1 mice (setting [2]) came out at 0%. Besides, in the test on OF1 mice (single 50 mg/kg p.o. dose, 30 min after treatment, MES Test), the “%-seizure protection” value was 0%.
With `CC(C)OC(C)c1cc2c(=O)n(NS(C)(=O)=O)c(=O)[nH]c2cc1C(F)(F)F` (stereo not drawn) [Example 18.0], on AMPA receptor (setting [3]), the pIC50 is 6.49.
On to `COC(C)c1cc2c(=O)n(NS(C)(=O)=O)c(=O)[nH]c2cc1C(F)(F)F` (stereo not drawn) [Example 16.0], for which the pIC50 on AMPA receptor (setting [3]) is 6.41.
As for `CC(OCC(F)(F)F)c1cc2c(=O)n(NS(C)(=O)=O)c(=O)[nH]c2cc1C(F)(F)F` (stereo not drawn) [Example 52.0], on AMPA receptor (setting [3]), the negative-log IC50 (pIC50) is 5.95.
